Data taken from the supplement of paper PMC10307832.

Columns and labels:
Test in all cases: relative viability (nuclei count vs DMSO), 5 days (fraction); higher = more cells survive
KIN001-266 + Alpelisib = compound: CCN1CCC(CC1)N2C=C(N=N2)CNC3=CC4=C(C(=CN=C4C(=C3)Cl)C#N)NC5=CC(=C(C=C5)F)Cl [KIN001-266] + Cc1nc(NC(=O)N2CCC[C@H]2C(N)=O)sc1-c1ccnc(C(C)(C)C(F)(F)F)c1 [Alpelisib] (partner 2 µM)
Outline: (§1)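 Lung cancer cell lines in 1536-well plates were dosed by pin tool the day after seeding, either with one drug alone or with a fixed anchor-drug dose plus five library-drug doses (not always all listed) in √10 steps. After 5 days, cells were fixed and their nuclei stained in one step (final 0.05% Triton X-100, 1% formaldehyde, 1 ug/ml Hoechst), then counted on 4× images. Relative viability is the nuclei count in treated wells divided by that in vehicle wells. Values are medians of duplicate plates.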

KIN001-266 + Dasatinib = compound: CCN1CCC(CC1)N2C=C(N=N2)CNC3=CC4=C(C(=CN=C4C(=C3)Cl)C#N)NC5=CC(=C(C=C5)F)Cl [KIN001-266] + Cc1nc(Nc2ncc(C(=O)Nc3c(C)cccc3Cl)s2)cc(N2CCN(CCO)CC2)n1 [Dasatinib] (partner 0.075 µM)
Outline: as §1

KIN001-266 + Tozasertib = compound: CCN1CCC(CC1)N2C=C(N=N2)CNC3=CC4=C(C(=CN=C4C(=C3)Cl)C#N)NC5=CC(=C(C=C5)F)Cl [KIN001-266] + Cc1cc(Nc2cc(N3CCN(C)CC3)nc(Sc3ccc(NC(=O)C4CC4)cc3)n2)n[nH]1 [Tozasertib] (partner 0.1 µM)
Outline: as §1

KIN001-266 + Luminespib = compound: CCN1CCC(CC1)N2C=C(N=N2)CNC3=CC4=C(C(=CN=C4C(=C3)Cl)C#N)NC5=CC(=C(C=C5)F)Cl [KIN001-266] + CCNC(=O)c1noc(-c2cc(C(C)C)c(O)cc2O)c1-c1ccc(CN2CCOCC2)cc1 [Luminespib] (partner 0.01 µM)
Outline: as §1

Row | Cell Line | relative viability (KIN001-266 + Alpelisib; first compound 0.08 µM) | relative viability (KIN001-266 + Alpelisib; first compound 0.253 µM) | relative viability (KIN001-266 + Alpelisib; first compound 0.8 µM) | relative viability (KIN001-266 + Alpelisib; first compound 2.53 µM) | relative viability (KIN001-266 + Alpelisib; first compound 8 µM) | relative viability (KIN001-266 + Dasatinib; first compound 0.08 µM) | relative viability (KIN001-266 + Dasatinib; first compound 0.253 µM) | relative viability (KIN001-266 + Dasatinib; first compound 0.8 µM) | relative viability (KIN001-266 + Dasatinib; first compound 2.53 µM) | relative viability (KIN001-266 + Dasatinib; first compound 8 µM) | relative viability (KIN001-266 + Tozasertib; first compound 0.08 µM) | relative viability (KIN001-266 + Tozasertib; first compound 0.253 µM) | relative viability (KIN001-266 + Tozasertib; first compound 0.8 µM) | relative viability (KIN001-266 + Tozasertib; first compound 2.53 µM) | relative viability (KIN001-266 + Tozasertib; first compound 8 µM) | relative viability (KIN001-266 + Luminespib; first compound 0.08 µM) | relative viability (KIN001-266 + Luminespib; first compound 0.253 µM) | relative viability (KIN001-266 + Luminespib; first compound 0.8 µM) | relative viability (KIN001-266 + Luminespib; first compound 2.53 µM) | relative viability (KIN001-266 + Luminespib; first compound 8 µM)
1 | NCI-H2087 | 1.06 | 1.02 | 1.04 | 1.06 | 0.758 | 0.914 | 0.887 | 0.866 | 0.87 | 0.472 | 0.206 | 0.246 | 0.23 | 0.175 | 0.155 | 0.199 | 0.156 | 0.173 | 0.165 | 0.184
2 | NCI-H2126 | 0.77 | 0.76 | 0.774 | 0.703 | 0.76 | 0.656 | 0.631 | 0.599 | 0.624 | 0.589 | 0.8 | 0.857 | 0.85 | 0.84 | 0.78 | 0.868 | 0.871 | 0.906 | 0.865 | 0.978
3 | NCI-H2170 | 0.81 | 0.771 | 0.776 | 0.734 | 0.786 | 0.422 | 0.505 | 0.571 | 0.594 | 0.576 | 0.802 | 0.715 | 0.623 | 0.785 | 0.709 | 0.704 | 0.801 | 0.675 | 0.739 | 0.568
4 | NCI-H2228 | 0.757 | 0.95 | 0.771 | 0.549 | 0.622 | 0.544 | 0.538 | 0.511 | 0.434 | 0.451 | 0.312 | 0.255 | 0.266 | 0.192 | 0.264 | 0.136 | 0.13 | 0.145 | 0.172 | 0.112
5 | NCI-H2347 | 1.03 | 1.01 | 1.03 | 0.996 | 0.578 | 0.34 | 0.294 | 0.258 | 0.329 | 0.241 | 0.521 | 0.5 | 0.558 | 0.518 | 0.367 | 0.846 | 0.009 | 0.41 | 0.358 | 0.269
6 | NCI-H2405 | 0.807 | 0.719 | 0.759 | 0.74 | 0.38 | 0.207 | 0.241 | 0.233 | 0.223 | 0.202 | 0.763 | 0.792 | 0.746 | 0.684 | 0.455 | 0.743 | 0.712 | 0.628 | 0.701 | 0.516
7 | NCI-H3122 | 0.841 | 0.909 | 0.699 | 0.728 | 0.767 | 0.78 | 0.752 | 0.856 | 0.891 | 0.763 | 0.428 | 0.389 | 0.389 | 0.378 | 0.37 | 0.0939 | 0.0878 | 0.106 | 0.123 | 0.098
